Measurements published in US20260202414A1, “PROTEIN COMPLEXES FOR PROXIMITY-BASED LABELING OF INTRACELLULAR MICROENVIRONMENTS” (THE TRUSTEES OF PRINCETON UNIVERSITY, priority 2022, published 2026).

Test system: cereblon (CRBN)
Assay: Proximity labeling study with CRBN-bound iridium complex and diazo-biotin (FIG. 3/4)
Type: cell-based
Conditions: transfected cells expressing CRBN with BCNK, tetrazine iridium complex bound to CRBN, diazo-biotin, irradiation; in the presence of CC-885 (without CC-885 only CRBN is enriched)
Source text: Alternatively, the transition metal complex can be bonded to a derivatized amino acid or unnatural amino acid of the protein substrate or E3 ligase. Suitable click chemistry moieties of the transition metal complex and/or unnatural amino acid can be selected from the group consisting of DBCO, BCN, TCO, tetrazine, alkyne and azide. FIG. 3 illustrates validation of such a binding strategy with cereblon (CRBN). Transfected cells were employed to express CRBN with BCNK. Iridium complex comprising a tetrazine moiety was introduced to bind the iridium complex to CRBN. CRBN modulator CC-885 was added to bind to CRBN, and diazo-biotin was added as a protein labeling agent. The iridium complex was irradiated to form a reactive intermediate through energy transfer to the diazo-biotin as described further herein. The reactive intermediate binding to biomolecular species within a predetermined radius of the CRBN-Ir. FIG. 4 illustrates the results of the labeling study. […] In the absence of CC-885, only CRBN is enriched.

`Cc1ccc(NC(=O)NCc2ccc3c(c2)CN(C2CCC(=O)NC2=O)C3=O)cc1Cl` (stereo not shown) [CC-885] was tested, and the “proteins enriched in the labeling study” value was “CRBN and GSPT1 are enriched”.
